Experimental data reported in the NIST ThermoML archive (doi:10.1021/acs.jced.5b01043).
Numbers after ± are expanded uncertainties.

How the values were obtained:
[1] = wn = mass fraction of the nth substance listed; settings: 100 kPa, Liquid, Vibrating tube method
[2] = refractive index (Na D-line) (dimensionless); wn = mass fraction of the nth substance listed; settings: 100 kPa, Liquid, Standard Abbe refractometry

CCN(C=O)CC [N,N-diethylformamide] + O
298.15 K
Settings	mass density, [1] [kg/m3]	refractive index, [2]
w1 = 0.009925	996.45 ± 0.11	1.33379 ± 0.00031
w1 = 0.04	995.04 ± 0.11	1.33758 ± 0.00031
w1 = 0.06998	993.7 ± 0.11	1.34136 ± 0.00032
w1 = 0.09919	992.49 ± 0.12	1.34512 ± 0.00032
w1 = 0.129	991.3 ± 0.12	1.34898 ± 0.00032
w1 = 0.16	989.97 ± 0.12	1.35302 ± 0.00032
w1 = 0.1897	988.8 ± 0.12	1.35684 ± 0.00032

CCN(C=O)CC [N,N-diethylformamide] + [Cl-].[Cs+]
288.15 K, w2 = 0.0013
Settings	mass density [kg/m3]	refractive index
[1]	910.38 ± 0.26	–
[2]	–	1.43686 ± 0.00037

CCN(C=O)CC [N,N-diethylformamide] + [Cl-].[K+]
Settings	mass density, [1] [kg/m3]	refractive index, [2]
288.15 K, w2 = 0.0015	911.47 ± 0.27	1.43618 ± 0.00037
298.15 K, w2 = 0.0009	903.51 ± 0.25	1.43281 ± 0.00037
308.15 K, w2 = 0.0005	896.68 ± 0.24	1.42872 ± 0.00037

CCN(C=O)CC [N,N-diethylformamide] + [Cl-].[Na+]
Settings	mass density, [1] [kg/m3]	refractive index, [2]
288.15 K, w2 = 0.0013	912.57 ± 0.26	1.43642 ± 0.00037
298.15 K, w2 = 0.0009	904.23 ± 0.25	1.43203 ± 0.00037
308.15 K, w2 = 0.0005	896.38 ± 0.24	1.42776 ± 0.00037

CCN(C=O)CC [N,N-diethylformamide] + [Cl-].[Rb+]
Settings	mass density, [1] [kg/m3]	refractive index, [2]
288.15 K, w2 = 0.0016	910.95 ± 0.28	1.43675 ± 0.00037
298.15 K, w2 = 0.0011	902.43 ± 0.25	1.43253 ± 0.00037
308.15 K, w2 = 0.0008	894.54 ± 0.25	1.42819 ± 0.00037

[Cl-].[Cs+] [cesium chloride] + O
288.15 K, w1 = 0.6406
Settings	mass density [kg/m3]	refractive index
[1]	1893.82 ± 1.2	–
[2]	–	1.41772 ± 0.00032

[Cl-].[K+] [potassium chloride] + O
Settings	mass density, [1] [kg/m3]	refractive index, [2]
288.15 K, w1 = 0.2483	1169.18 ± 0.67	1.36809 ± 0.00032
298.15 K, w1 = 0.2668	1174.11 ± 0.68	1.36838 ± 0.00032
308.15 K, w1 = 0.2768	1184.11 ± 0.68	1.36932 ± 0.00032

[Cl-].[Rb+] [rubidium chloride] + O
Settings	mass density, [1] [kg/m3]	refractive index, [2]
288.15 K, w1 = 0.4652	1482.6 ± 0.87	1.38751 ± 0.00032
298.15 K, w1 = 0.4823	1495.24 ± 0.88	1.38769 ± 0.00032
308.15 K, w1 = 0.5033	1520.16 ± 0.9	1.38939 ± 0.00032

[Cl-].[Na+] [sodium chloride] + O
Settings	mass density, [1] [kg/m3]	refractive index, [2]
288.15 K, w1 = 0.2631	1202.37 ± 0.69	1.381 ± 0.00032
298.15 K, w1 = 0.265	1197.1 ± 0.69	1.37938 ± 0.00031
308.15 K, w1 = 0.2666	1193.13 ± 0.69	1.37784 ± 0.00032
